Source: patent US9187397B2 (STC.UNM, priority 2004, dated 2015)
Entries after “also recorded” stand apart in the source; their conditions may differ. Read-outs that look alike come from different tables or passages of the source.

Key:
AP-1 = AP-1 luciferase reporter cellular assay (293/AP1-luc, PMA-stimulated); type: cell-based, human; conditions: for activity in the AP-1 cellular assay (screen): 15 μM, compared with curcumin; for IC50: Homo sapiens
Procedure: This cell line is obtained by co-transfection of pAP1-luc and pTK-hyg containing plasmids followed by the addition of hygromycin (200 μg/ml) to maintain cell selection.
After 24 hr, the cells had reached approximately 60% confluency. […] Plate wells were gently washed with PBS, pH 7.4, and lysed with passive lysis buffer (1×, 100 μl, Promega). The subsequent chemiluminescent lysates were analyzed with the Luciferase Assay System (Promega) utilizing a TD-20/20 luminometer. The relative light units (photons) were determined by the addition of firefly luciferase substrate (75 μl) to cell lysate (10 μl). The light units were then normalized to the amount of protein in the well (mg/ml) with BCA™ Protein Assay Kit (Pierce) and standardized to percent of control (PMA).
(§1) This cell line is stably transfected with a luciferase reporter controlled by an AP-1 dependent promoter. The cell is stimulated with phorbol ester which activates AP-1. AP-1 then binds to one of three promoter regions on the cells DNA leading to the production of a luciferase enzyme. Luciferin is added to the cell lysates and the luciferase enzyme catalyzes a cleavage of luciferin leading to the emission of light.

NF-κB = NF-κB luciferase reporter cellular assay (293T/NF-κB-luc, TNFα-stimulated); type: cell-based, human; conditions: for inhibition of the activation of NF-κB by TNFα (screen): 10 μM, compared with curcumin; for IC50: Homo sapiens, HEK-293T, inhibition of TNF-α-induced NF-κB activation, Panomics 293T/NFκB-luc, second Table 12, read-out: IC50
Procedure: The cell line is derived from human 293T embryonic kidney cells expressing the large T antigen containing a chromosomal integration of a luciferase reporter construct regulated by 6 copies of the NF-κB response element (Panomics, Inc.). This stable clonal cell line is obtained by co-transfection of pNF-κB-luc and pTK-hyg containing plasmids followed by the addition of hygromycin (200 μg/ml) to maintain cell selection.
The cell line was grown in a humidified atmosphere at 37° C. in 5% CO2/95% air and maintained in Dulbecco's Modified Eagle's Medium (DMEM-high glucose containing 4 mM glutamine) containing fetal bovine serum (FBS, 10%), sodium pyruvate (1 mM), penicillin (100 units/ml), streptomycin (100 μg/ml) and hygromycin (100 μg/m) to maintain cell selection (Gibco/Invitrogen).
The 293T/NF-κB-luc cells were re-plated 24 hr prior to treatment, into 24-well cell culture plates in media without hygromycin, to prevent it from interfering with the assay. The cells were then allowed to grow and attach, to the wells, for 24 hr in a humidified atmosphere at 37° C. in 5% CO2/95% air. […] The cells then were placed again in a humidified atmosphere at 37° C. in 5% CO2/95% air for 7 hr. Plate wells were gently washed with PBS, pH 7.4, and lysed with passive lysis buffer (1×, 100 μl, Promega). The subsequent chemiluminescent lysates were analyzed with the Luciferase Assay System (Promega) utilizing a TD-20/20 luminometer. The relative light units (photons) were determined by the addition of firefly luciferase substrate (75 μl) to cell lysate (10 μl). The light units were then normalized to the amount of protein in the well (mg/ml) with BCA™ Protein Assay Kit (Pierce) and standardized to percent of control (TNFα).
as §1, with “This assay utilized a commercially available cell line (Panomics 293T-luc cellular assay) developed for screening inhibitors of NF-κB. This” for “This”, “NF-κB” for “AP-1”, “tumor necrosis factor alpha (TNFα)” for “phorbol ester”, “NF-κB. NF-κB” for “AP-1. AP-1”, “six” for “three”, “cell's” for “cells”
This cell line was developed by Panomics for screening potential inhibitors of NF-κB. Cells are stimulated with TNF-α to express luciferase, whose activity is monitored in a chemiluminometer.
An NF-κB reporter stable cell line from human 293T embryonic kidney cells (293T/NFκB-luc) (Panomics) was grown in a humidified atmosphere at 37° C. in 5% CO2/95% air. The cells were maintained in Dulbecco's Modified Eagle's Medium (DMEM—high glucose containing 4 mM glutamine) supplemented with 10% fetal bovine serum (FBS), 1 mM sodium pyruvate, 100 units/ml penicillin, 100 μg/m streptomycin and 100 μg/ml hygromycin (Gibco/Invitrogen, Carlsbad, Calif.)) to maintain cell selection. One day prior to treatment, the 293T/NFκB-luc cells were plated into 24-well cell culture plates (Costar) at approximately 70% confluency in the above media without hygromycin. The following day cells were fed fresh media 1 hour prior to treatment. […] The cells were placed again in a humidified atmosphere at 37° C. in 5% CO2/95% air for 7 hours. Plate wells were gently washed with phosphate buffered saline, pH 7.4, and lysed with 1× passive lysis buffer (Promega). The subsequent lysates were analyzed with the Luciferase Assay System (Promega) utilizing a TD-20/20 luminometer (Turner Designs). The firefly luciferase relative light units were normalized to protein (mg/ml) with BCATM Protein Assay Kit (Pierce) and standardized to TNF-α control.

[1] = Total Radical-trapping Anti-oxidant Parameter assay (TRAP assay); set-up: key to TRAP: active as an antioxidant (+); conditions: for TRAP: antioxidant activity
Procedure: This assay is also known as the Total radical-trapping anti-oxidant parameter assay (TRAP assay). For the TRAP assay (Re et al., Free Rad. Biol. […] The turquoise colored reaction was allowed to stabilize for 5 min and the absorbance monitored on a Perkin Elmer UV/Vis Lambda 2S. […] The following FIGS. 2A-2C) show the analogs active in the TRAP assay.

[2] = Ferric Reducing/Anti-oxidant Power assay (FRAP assay); set-up: key to FRAP: active as an antioxidant (+); conditions: for activity in the FRAP assay: compared with curcumin; for FRAP: antioxidant activity
Procedure: Anti-oxidant activity was also measured in the Ferric reducing/anti-oxidant power assay (FRAP assay) in which the analogs are reacted with a ferric tripyridyltriazine complex. For the FRAP assay (Benzie et al., Meth. Enzymol. 1999, 299, 15-27), the ferric complex was prepared at room temperature by reaction of ferric chloride (16.7 mM) and 2,4,6-tripyridyl-s-triazine (8.33 mM) in acetate buffer (0.25 M) to pH 3.6. The FRAP reagent was used immediately after preparation. […] The reaction was mixed by vortexing, allowed to stabilize for 5 min and the absorbance recorded on a Perkin Elmer UV/Vis Lambda 2S. […] The synthetic analog of α-tocopherol (vitamin E), Trolox, was used as a reference standard (10 μM in ethanol).
The second assay used, the FRAP assay, determines the analogs abilities to reduce a Fe(III) tripyridyltriazine complex to a Fe(II) tripyridyltriazine complex. The following FIGS. 3A-3C) show analogs active in the FRAP assay.

SMILES | activity in the AP-1 cellular assay (screen) (AP-1) | inhibition of the activation of NF-κB by TNFα (screen) (NF-κB) | other results
COc1cc(/C=C/C(=O)/C=C/c2cc(OC)cc(OC)c2)cc(OC)c1 [20o] | more active than curcumin | more active than curcumin | 
O=C(/C=C/c1ccccc1O)/C=C/c1ccccc1O [20q] | more active than curcumin | more active than curcumin | activity in the TRAP assay ([1]; 10 μM in ethanol, compared with curcumin): more active than curcumin; TRAP ([1]; 10 μM in ethanol, Table 5): +; TRAP ([1]; Table 10): +; IC50 (AP-1; inhibition of PMA-induced AP-1 activation, 293/AP1-luc cells, Table 10, read-out: AP-1 IC50): 11.7 µM
O=C(/C=C/c1cccc(C(F)(F)F)c1)/C=C/c1cccc(C(F)(F)F)c1 [20v] |  | more active than curcumin | 
O=C(/C=C/c1ccccc1C(F)(F)F)/C=C/c1ccccc1C(F)(F)F [20w] | more active than curcumin | more active than curcumin | 
COc1cc(/C=C/C(C)=O)ccc1O [35a] |  | more active than curcumin | activity in the FRAP assay ([2]; 10 μM in ethanol): active
CC(=O)C=Cc1ccccc1O [35q] | Active |  | 
COc1cc(/C=C2\CCC/C(=C\c3ccc(O)c(OC)c3)C2=O)ccc1O [38a] | more active than curcumin |  | TRAP ([1]; 10 μM in ethanol, Table 5): +; TRAP ([1]; Table 10): +; IC50 (AP-1; AP1, read-out: AP-1 IC50 (μM)): 7.3 µM; FRAP ([2]; 10 μM in ethanol, Table 5): +; FRAP ([2]; Table 10): +
O=C(C1OC1c1ccccc1)C1OC1c1ccccc1 (stereo not drawn) [42b] |  | activity comparable to curcumin | 
CN1C(c2ccccc2)CC(=O)CC1c1ccccc1 (stereo not drawn) [52b] |  | more active than curcumin; also recorded: activity comparable to curcumin | 
COc1cc(/C=C/C(=O)/C(C)=C(O)/C=C/c2ccc(O)c(OC)c2)ccc1O [Compound 2] |  |  | IC50 (NF-κB): 6.7 ± 1.2 µM
O=C(/C=C/c1cccnc1)/C=C/c1cccnc1 [Compound 3] |  |  | IC50 (NF-κB): 3.4 ± 0.2 µM
O=C(/C=C/c1ccccc1C(F)(F)F)/C=C/c1ccccc1C(F)(F)F [Compound 5] |  |  | IC50 (NF-κB): 5 ± 0.3 µM

Second part, led by results:

activity in the AP-1 cellular assay (screen) (AP-1) | inhibition of the activation of NF-κB by TNFα (screen) (NF-κB) | SMILES | other results
Active |  | O=C(O)c1ccc(C(=O)/C=C/c2ccccc2)cc1 [46ad] | activity in the FRAP assay ([2]; 10 μM in ethanol): active
Active |  | N#Cc1ccc(C(=O)/C=C/c2ccccc2)cc1 [46al] | 
most active |  | COc1cc(/C=C/C(=O)c2ccccc2)ccc1O [48a] | activity in the FRAP assay ([2]; 10 μM in ethanol): active
